{
  "source": "patent US20100215710A1",
  "about": "“Beta-2 Adrenergic Receptor Agonists and Antagonists and Modulation of Wound Healing” (The Regents of the University of California, priority 2005, published 2010)",
  "type_in_all_cases": "cell-based",
  "key": {"human keratinocytes [1]": {"tested_on": "human keratinocytes", "experiment": "Single cell migration assay, keratinocytes (clenbuterol, OA)", "description": "All single cell migration assays were performed on cells plated on glass cover-slips inserted into 35 mm plastic dishes (MatTek Corp., Ashland, Mass.) that had been coated for 1 hour at 37° C. with 60 μg/ml collagen L Cells were plated onto the collagen-coated glass cover-slips at a density of 250 cells/mm^2 for 3-6 hours at 37° C. Cells were either untreated (control), pre-treated with 10 nM okadaic acid (OA) (10 nM) for 45 minutes prior to the addition of OA (10 nM) and clenbuterol (1 μM) (OA/Clen) or treated with either OA or clenbuterol (1 μM) alone at time 0. The dishes were inserted into metal plates, maintained at 37° C., on inverted Nikon Diaphot microscopes to monitor single cell migration. Time-lapse images of the cell migratory response were digitally captured every 10 minutes over a one-hour period by Q-Imaging Retiga-EX cameras (Burnaby, BC, Canada) controlled by a custom automation written in Improvision Open Lab software (Lexington, Mass.) on a Macintosh G4. After each cell's center of mass was tracked using the Open Lab software, migration speed and distance were calculated and imported to Excel (Microsoft Corporation, Redmond, Wash.). Significance was taken as p<0.01, using Student's t test (unpaired) to compare the means of the control and β-AR agonist-treated cell populations.\nKeratinocytes were plated onto collagen-coated glass cover-slips at a concentration of 250 cells/mm^2 in KGM for 3-6 hours at 37° C. The migration of each single cell was monitored over a one-hour period, and the results were analyzed in excel as described. The speed of migration ([…]) is represented graphically in FIG. 1 Panel C, control n=57, clenbuterol n=57, OA n=60, OA-clenbuterol n=44. The data are representative of three independent experiments with at least two different keratinocyte strains. * P<0.01 between β-AR agonist and controls; #P<0.01 between OA-clenbuterol and clenbuterol alone."}, "human keratinocytes [2]": {"tested_on": "human keratinocytes", "experiment": "Immunofluorescent staining of actin and vinculin, keratinocytes (β-AR agonist, OA)", "description": "Sterile glass cover-slips (Fisher Scientific, Pittsburgh, Pa.) were transferred into 12 well dishes and collagen-coated with 60 μg/ml collagen I in KGM for 1 hour at 37° C. Cover-slips were washed three times with KGM and 3×10^4 cells were added per well and allowed to attach overnight. Cells were untreated, treated with 1 μM β-AR agonist for 15 minutes, OA (10 nM) for 45 minutes, or pre-treated with OA (10 nM) for 30 minutes prior to the addition of 1 μM β-AR agonist for 15 minutes. All steps were performed at room temperature unless otherwise noted. Cover slips were washed twice in PBS and fixed for 10 minutes in 4% paraformaldehyde. Cover-slips were washed twice in PBS between each step. Cells were permeabilized for 5 minutes with 0.1% Triton-X-100/PBS, blocked with 5% goat serum/PBS for 20 minutes, primary monoclonal anti-vinculin antibody (Sigma, St. Louis, Mo.) or anti-phospho-ERK antibody (Cell Signaling Technology, Beverly, Mass.) were added drop-wise in 1% goat serum/PBS (1:100) and incubated for 1 hour at 37° C. A goat anti-mouse cy3 (Jackson labs, West Grove, Pa.) (1:100) antibody was then added in 1% goat serum/PBS for 1 hour at 37° C. Alexa 488-phalloidin (Molecular Probes, Eugene, Oreg.) (1:40) in PBS was added to the vinculin-stained cover-slips for 20 minutes. […]"}, "adult human CECs": {"tested_on": "adult human CECs", "experiment": "Single cell migration assay, adult human corneal epithelial cells", "description": "Glass bottomed 35 mm dishes (MatTek Corporation, Ashland, Mass.) were coated with collagen I (60 μg/ml) (Cohesion Technologies, Palo Alto, Calif.) in PBS for 1 hour at 37° C. Adult human CECs were plated at a density of 50 cells/mm^2 for 2 hours at 37° C. Cells were pre-incubated with either CGM alone or CGM containing 100 nM okadaic acid (OA) for 45 minutes at 37° C. Untreated cells were then incubated with CGM alone (control) or with CGM containing either 20 μM β-AR antagonist, 10 nM or 1 μM β-AR agonist. Pre-treated cells were stimulated with 100 nM OA alone or both 10 nM or 1 μM β-AR agonist and 100 nM OA at time 0. The 35 mm glass-bottomed dishes were placed in a heating chamber, designed to maintain the media between 35-37° C., secured to the stage of an inverted Nikon Diaphot microscope. Individual cell migration was monitored over a 1 hour period at 37° C., as described previously (Pullar and Isseroff (2005b) “Cyclic AMP mediates keratinocyte directional migration in an electric field” J Cell Sci 118:2023-2034). […] After each cell's center of mass was tracked using the Open Lab software, migration speed and distance were calculated and imported to Excel (Microsoft Corporation, Redmond, Wash.). […]"}},
  "data": [
    {"smiles": "C=C1[C@@H](O)[C@@H]2O[C@]3(CC[C@H](/C=C/[C@@H](C)[C@@H]4CC(C)=C[C@@]5(O[C@H](C[C@@](C)(O)C(=O)O)CC[C@H]5O)O4)O3)CC[C@H]2O[C@@H]1[C@@H](O)C[C@H](C)[C@H]1O[C@@]2(CCCCO2)CC[C@H]1C", "note": "[OA, okadaic acid]", "values": [
      {"measurement": "effect on keratinocyte migration", "setting": "human keratinocytes [1]; OA 10 nM alone", "result": "no effect"},
      {"measurement": "effect on clenbuterol-induced reduction in speed", "setting": "human keratinocytes [1]; OA 10 nM pre-treatment, then OA plus 1 μM clenbuterol", "result": "completely prevents"},
      {"measurement": "effect on cytoskeletal conformation", "setting": "human keratinocytes [2]; OA 10 nM alone, 45 minutes", "result": "no effect"},
      {"measurement": "effect on β2-AR-mediated change in cytoskeletal conformation", "setting": "human keratinocytes [2]; OA 10 nM pre-treatment prior to 1 μM β-AR agonist", "result": "prevents"},
      {"measurement": "effect on migration rate", "setting": "adult human CECs; OA 100 nM alone", "result": "no effect"},
      {"measurement": "effect on β-AR agonist-mediated decrease in migration rate", "setting": "adult human CECs; OA 100 nM pre-treatment, then OA plus β-AR agonist", "result": "completely prevents"}
    ]}
  ]
}
